This passage reports Kd results from patent US20070004634A1 (Novo Nordisk A/S, priority 1998, published 2007).

One may read the Kd as the constant that tells how readily two partners part at equilibrium.

No end group written: not given here.

In this experiment the target is IR (Homo sapiens, UniProt P06213). Put plainly: IR-Kd. Set-up: replacing the transmembrane domain and the intracellular domain of IR with constant domains from immunoglobulin Fc or λ subunits; made in house; host or cells: human embryonic kidney 293 cells (Bass et al.). An excerpt: Table printed on a drawing sheet, FIG. 5B
Sequence of IR (P06213 28-758 limits assumed): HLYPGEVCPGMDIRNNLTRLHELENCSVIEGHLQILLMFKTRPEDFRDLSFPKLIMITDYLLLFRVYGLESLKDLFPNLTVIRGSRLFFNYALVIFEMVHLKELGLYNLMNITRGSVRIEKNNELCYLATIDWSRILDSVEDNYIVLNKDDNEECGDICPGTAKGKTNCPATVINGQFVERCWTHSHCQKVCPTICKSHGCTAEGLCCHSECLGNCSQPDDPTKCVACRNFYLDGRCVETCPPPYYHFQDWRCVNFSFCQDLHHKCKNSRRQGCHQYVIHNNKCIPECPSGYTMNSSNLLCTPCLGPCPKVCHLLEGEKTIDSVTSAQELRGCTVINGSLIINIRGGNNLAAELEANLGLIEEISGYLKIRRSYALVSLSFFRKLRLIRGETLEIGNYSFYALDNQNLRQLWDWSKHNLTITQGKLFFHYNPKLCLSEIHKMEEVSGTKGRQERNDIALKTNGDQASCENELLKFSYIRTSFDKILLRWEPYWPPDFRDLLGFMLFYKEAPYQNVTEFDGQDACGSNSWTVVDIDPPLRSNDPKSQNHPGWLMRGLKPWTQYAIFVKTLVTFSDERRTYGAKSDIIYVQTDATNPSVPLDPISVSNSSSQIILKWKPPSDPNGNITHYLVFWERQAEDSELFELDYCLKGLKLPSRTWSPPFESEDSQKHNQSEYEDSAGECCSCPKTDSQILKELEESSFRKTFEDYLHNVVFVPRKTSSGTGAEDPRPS
Sequence of IR (P06213 763-1382 limits assumed): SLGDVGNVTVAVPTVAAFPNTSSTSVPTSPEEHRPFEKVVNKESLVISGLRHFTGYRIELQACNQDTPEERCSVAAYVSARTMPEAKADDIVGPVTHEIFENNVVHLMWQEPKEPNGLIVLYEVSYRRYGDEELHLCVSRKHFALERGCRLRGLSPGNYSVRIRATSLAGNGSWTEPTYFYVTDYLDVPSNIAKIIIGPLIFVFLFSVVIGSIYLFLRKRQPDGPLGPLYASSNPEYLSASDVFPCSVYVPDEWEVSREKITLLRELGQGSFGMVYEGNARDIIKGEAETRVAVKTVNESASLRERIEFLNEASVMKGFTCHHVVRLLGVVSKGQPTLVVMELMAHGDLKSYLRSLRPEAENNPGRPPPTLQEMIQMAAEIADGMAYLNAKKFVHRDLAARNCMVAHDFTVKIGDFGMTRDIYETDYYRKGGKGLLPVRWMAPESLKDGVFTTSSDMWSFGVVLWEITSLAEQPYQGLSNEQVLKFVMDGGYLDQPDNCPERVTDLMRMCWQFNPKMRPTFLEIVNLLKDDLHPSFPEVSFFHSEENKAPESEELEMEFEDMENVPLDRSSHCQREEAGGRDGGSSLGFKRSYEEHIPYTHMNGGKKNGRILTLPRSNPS
The patent's description of the figure: FIG. 5A: Summary of specific representative amino acid sequences from Formulas 1, 4, 6, and 10 (SEQ ID NOS:1155-1180).
FIG. 5B: Summary of specific representative amino acid sequences from Formulas 1, 4, 6, and 10 (SEQ ID NOS:1181-1220).
First copying reader's note: The scan is skewed, so values in the right-hand columns sit slightly higher than their clone names, and their rows were assigned by following the ruled lines.
Where the first naming reader finds the target: head: IR-Kd

AFYDWFAKK [Peptide S167] registered a Kd of over 20 µM.
